In PubChem BioAssay AID435002 (The Scripps Research Institute Molecular Screening Center, 2010):

System: HEK293 cells, ROS production inhibition counter-screen
Assay: ROS production inhibition in HEK293 cells, late-stage follow-up, counter-screen for NOX1 inhibitor project, cell-based, IC50, set 2 (AID 435002)

For `Cc1cc(Cl)ccc1NC(=S)NNC(=S)Nc1ccc(F)cc1`, the IC50 was 960 nM.

In the case of `COc1cc(-c2nc(-c3ccccc3)c(-c3ccccc3)[nH]2)ccc1O`, the IC50 is reported as 1810 nM.

With `CN(C)c1ccc(NC(=O)Nc2ccc(OCc3ccccc3)cc2)cc1` the IC50 was 2370 nM.

For `FC(F)(F)c1ccc2c(c1)Nc1ccccc1S2`, the IC50 was 1000 nM.
